# Target: T1, cPLA2 (Homo sapiens, UniProt P47712)
# T1 sequence (P47712 1-749): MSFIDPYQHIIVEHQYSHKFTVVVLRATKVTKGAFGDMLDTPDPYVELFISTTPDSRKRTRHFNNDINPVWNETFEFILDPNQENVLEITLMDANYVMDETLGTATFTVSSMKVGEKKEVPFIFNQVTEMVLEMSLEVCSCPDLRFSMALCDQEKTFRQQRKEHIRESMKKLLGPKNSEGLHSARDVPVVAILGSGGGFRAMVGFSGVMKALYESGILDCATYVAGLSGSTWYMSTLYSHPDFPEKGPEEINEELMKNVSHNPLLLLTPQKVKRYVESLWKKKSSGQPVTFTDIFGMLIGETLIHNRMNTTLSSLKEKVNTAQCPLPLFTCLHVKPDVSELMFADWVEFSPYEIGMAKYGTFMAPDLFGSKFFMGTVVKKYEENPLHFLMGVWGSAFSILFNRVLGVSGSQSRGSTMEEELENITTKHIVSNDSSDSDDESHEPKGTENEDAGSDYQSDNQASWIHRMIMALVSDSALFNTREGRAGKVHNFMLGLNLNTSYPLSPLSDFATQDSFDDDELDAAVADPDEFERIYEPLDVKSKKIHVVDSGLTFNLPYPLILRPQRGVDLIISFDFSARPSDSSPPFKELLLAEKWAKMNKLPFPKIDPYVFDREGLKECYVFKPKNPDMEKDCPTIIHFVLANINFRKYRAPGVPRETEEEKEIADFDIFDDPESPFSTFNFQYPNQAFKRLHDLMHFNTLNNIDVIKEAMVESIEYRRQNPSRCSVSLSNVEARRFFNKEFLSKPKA
# Experiment: Coumarine assay (hydrolysis of 7-hydroxycoumarinyl 6-heptenoate)
# Type: biochemical
# Settings: 60 μM 7-hydroxycoumarinyl 6-heptenoate, pH 7.5; read-out: Coumarin IC50
row,Compound,IC50
1,"CCC1CCCCN1CCS(=O)(=O)NCCc1c(CCOc2ccc(C(=O)O)cc2)c2cc(Cl)ccc2n1C(c1ccccc1)c1ccccc1 (stereo not shown) [Example 249, 4-(2-{1-benzhydryl-5-chloro-2-[2-({[2-(2-ethylpiperidin-1-yl)ethyl]sulfonyl}amino)ethyl]-1H-indol-3-yl}ethoxy)benzoic acid]",670 nM
2,"O=C(O)c1ccc(OCCc2c(CCNS(=O)(=O)CCN3CCC(O)CC3)n(C(c3ccccc3)c3ccccc3)c3ccc(Cl)cc23)cc1 [Example 123, 4-[2-(1-Benzhydryl-5-chloro-2-{2-[2-(4-hydroxy-piperidin-1-yl)-ethanesulfonylamino]-ethyl}-1H-indol-3-yl)-ethoxy]-benzoic acid]",1500 nM
3,"CC(C)C1CCCN1CCS(=O)(=O)NCCc1c(CCOc2ccc(C(=O)O)cc2)c2cc(Cl)ccc2n1C(c1ccccc1)c1ccccc1 (stereo not shown) [Example 252, 4-(2-{1-benzhydryl-5-chloro-2-[2-({[2-(2-isopropylpyrrolidin-1-yl)ethyl]sulfonyl}amino)ethyl]-1H-indol-3-yl}ethoxy)benzoic acid]",730 nM
4,"4-(2-{1-benzhydryl-5-chloro-2-[2-({[(5,6-dichloropyridine-2-yl)methyl]sulfonyl}amino)ethyl]-1H-indol-3-yl}ethoxy)benzoic acid [Example 76]",400 nM
5,"O=C(O)c1ccc(OCCc2c(CCNS(=O)(=O)c3ccccc3Br)n(C(c3ccccc3)c3ccccc3)c3ccc(Cl)cc23)cc1 [Example 165, 4-{2-[1-benzhydryl-2-(2-{[(2-bromophenyl)sulfonyl]amino}ethyl)-5-chloro-1H-indol-3-yl]ethoxy}benzoic acid]",530 nM
6,"Cc1nc(-c2ccc(S(=O)(=O)NCCc3c(CCOc4ccc(C(=O)O)cc4)c4cc(Cl)ccc4n3C(c3ccccc3)c3ccccc3)s2)cs1 [Example 177, 4-(2-{1-benzhydryl-5-chloro-2-[2-({[5-(2-methyl-1,3-thiazol-4-yl)thien-2-yl]sulfonyl}amino)ethyl]-1H-indol-3-yl}ethoxy)benzoic acid]",900 nM
7,"O=C(O)c1ccc(OCCc2c(CCNS(=O)(=O)c3ccsc3)n(C(c3ccccc3)c3ccccc3)c3ccc(Cl)cc23)cc1 [Example 178, 4-[2-(1-benzhydryl-5-chloro-2-{2-[(thien-3-ylsulfonyl)amino]ethyl}-1H-indol-3-yl)ethoxy]benzoic acid]",650 nM
8,"Cc1c(Cl)cccc1S(=O)(=O)NCCc1c(CCOc2ccc(C(=O)O)cc2)c2cc(Cl)ccc2n1C(c1ccccc1)c1ccccc1 [Example 241, 4-{2-[1-benzhydryl-5-chloro-2-(2-{[(3-chloro-2-methylphenyl)sulfonyl]amino}ethyl)-1H-indol-3-yl]ethoxy}benzoic acid]",540 nM
9,"O=C(O)c1ccc(CCCc2c(CCNS(=O)(=O)c3ccccc3Cl)n(C(c3ccccc3)c3ccccc3)c3ccccc23)cc1 [Example 295, 4-{3-[1-benzhydryl-2-(2-{[(2-chlorophenyl)sulfonyl]amino}ethyl)-1H-indol-3-yl]propyl}benzoic acid]",550 nM
10,"COc1ccc(S(=O)(=O)NCCc2c(CCCc3ccc(C(=O)O)cc3)c3cc(Cl)ccc3n2C(c2ccccc2)c2ccccc2)c2nonc12 [Example 173, 4-{3-[1-benzhydryl-5-chloro-2-(2-{[(7-methoxy-2,1,3-benzoxadiazol-4-yl)sulfonyl]amino}ethyl)-1H-indol-3-yl]propyl}benzoic acid]",400 nM
11,"CS(=O)(=O)c1ccc(S(=O)(=O)NCCc2c(CCOc3ccc(C(=O)O)cc3)c3cc(Cl)ccc3n2C(c2ccccc2)c2ccccc2)cc1 [Example 203, 4-(2-{1-benzhydryl-5-chloro-2-[2({[4-(methylsulfony)phenyl]sulfonyl}amino)ethyl]-1H-indol-3-yl}ethoxy)benzoic acid]",690 nM
12,"O=C(O)c1ccc(OCCc2c(CCNS(=O)(=O)c3cccc(OC(F)(F)F)c3)n(C(c3ccccc3)c3ccccc3)c3ccc(Cl)cc23)cc1 [Example 198, 4-(2-{1-Benzhydryl-5-chloro-2-[2-(3-trifluoromethoxy-benzenesulfonylamino)-ethyl]-1H-indol-3-yl}-ethoxy)-benzoic acid]",700 nM
13,"O=C(O)c1ccc(OCCc2c(CCNS(=O)(=O)c3c(F)cc(F)cc3F)n(C(c3ccccc3)c3ccccc3)c3ccc(Cl)cc23)cc1 [Example 196, 4-(2-{1-Benzhydryl-5-chloro-2-[2-(2,4,6-trifluoro-benzenesulfonylamino)-ethyl]-1H-indol-3-yl}-ethoxy)-benzoic acid]",560 nM
14,"4-[2-(1-benzhydryl-5-chloro-2-{2-[({2-[(3R,5S)-3,5-dimethylmorpholin-4-yl]ethyl}sulfonyl)amino]ethyl}-1H-indol-3-yl)ethoxy]benzoic acid [Example 250]",2100 nM
15,"O=C(O)c1ccc(OCCc2c(CCNS(=O)(=O)c3ccccc3[N+](=O)[O-])n(C(c3ccccc3)c3ccccc3)c3ccc(Cl)cc23)cc1 [Example 265, 4-{2-[1-benzhydryl-5-chloro-2-(2-{[(2-nitrophenyl)sulfonyl]amino}ethyl)-1H-indol-3-yl]ethoxy}benzoic acid]",370 nM

# These reach a lower IC50. Values come first.
row,IC50,Compound
1,350 nM,"O=C(O)c1ccc(OCCc2c(CCNS(=O)(=O)c3ccccc3C(F)(F)F)n(C(c3ccccc3)c3ccccc3)c3ccc(Cl)cc23)cc1 [Example 209, 4-[2-{1-Benzhydryl-5-chloro-2-[2-({[2-(trifluoromethyl)phenyl]sulfonyl}amino)ethyl]-1H-indol-3-yl}ethoxy)benzoic acid]"
2,350 nM,"COc1ccc(S(=O)(=O)NCCc2c(CCCc3ccc(C(=O)O)cc3)c3cc(Cl)ccc3n2C(c2ccccc2)c2ccccc2)c([N+](=O)[O-])c1 [Example 200, 4-(3-{1-Benzhydryl-5-chloro-2-[2-(4-methoxy-2-nitro-benzenesulfonylamino)-ethyl]-1H-indol-3-yl}-propyl)-benzoic acid]"
3,320 nM,"O=C(O)c1ccc(CCCc2c(CCNS(=O)(=O)c3ccc(Cl)cc3Cl)n(C(c3ccccc3)c3ccccc3)c3ccc(Cl)cc23)cc1 [Example 152, 4-{3-[1-benzhydryl-5-chloro-2-(2-{[(2,4-dichlorophenyl)sulfonyl]-amino}ethyl)-1H-indol-3-yl]propyl}benzoic acid]"
4,300 nM,"NCc1ccccc1S(=O)(=O)NCCc1c(CCOc2ccc(C(=O)O)cc2)c2cc(Cl)ccc2n1C(c1ccccc1)c1ccccc1 [Example 163, 4-(2-{2-[2-({[2-(aminomethyl)phenyl]sulfonyl}amino)ethyl]-1-benzhydryl-5-chloro-1H-indol-3-yl}ethoxy)benzoic acid]"
5,240 nM,O=C(O)c1ccc(CCCc2c(CCNS(=O)(=O)c3ccccc3C(F)(F)F)n(C(c3ccccc3)c3ccccc3)c3ccc(Cl)cc23)cc1 [Example 208]
6,230 nM,"O=C(O)c1ccc(CCCc2c(CCNS(=O)(=O)c3ccsc3)n(C(c3ccccc3)c3ccccc3)c3ccc(Cl)cc23)cc1 [Example 180, 4-[3-(1-benzhydryl-5-chloro-2-{2-[(thien-3-ylsulfonyl)amino]ethyl}-1H-indol-3-yl)propyl]benzoic acid]"
7,160 nM,"Cc1cccc(Cl)c1S(=O)(=O)NCCc1c(CCOc2ccc(C(=O)O)cc2)c2cc(Cl)ccc2n1C(c1ccccc1)c1ccccc1 [Example 227, 4-{2-[1-benzhydryl-5-chloro-2-(2-{[(2-chloro-6-methylphenyl)sulfonyl]amino}ethyl)-1H-indol-3-yl]ethoxy}benzoic acid]"
8,160 nM,"O=C(O)c1ccc(CCCc2c(CCNS(=O)(=O)c3c(Cl)cccc3Cl)n(C(c3ccccc3)c3ccccc3)c3ccc(Cl)cc23)cc1 [Example 153, 4-{3-[1-benzhydryl-5-chloro-2-(2-{[(2,6-dichlorophenyl)sulfonyl]amino}ethyl)-1H-indol-3-yl]propyl}benzoic acid]"
9,150 nM,"Cc1c(S(=O)(=O)NCCc2c(CCCc3ccc(C(=O)O)cc3)c3cc(Cl)ccc3n2C(c2ccccc2)c2ccccc2)cnn1-c1ccccc1 [Example 210, 4-{3-[1-benzhydryl-5-chloro-2-(2-{[(5-methyl-1-phenyl-1H-pyrazol-4-yl)sulfonyl]amino}ethyl)-1H-indol-3-yl]propyl}benzoic acid]"
10,150 nM,O=C(O)c1ccc(OCCc2c(CCNS(=O)(=O)c3c(F)cccc3C(F)(F)F)n(C(c3ccccc3)c3ccccc3)c3ccc(Cl)cc23)cc1 [Example 269]
11,140 nM,"Cc1cccc(C)c1S(=O)(=O)NCCc1c(CCCc2ccc(C(=O)O)cc2)c2cc(Cl)ccc2n1C(c1ccccc1)c1ccccc1 [Example 270, 4-(3-[1-benzhydryl-5-chloro-2-(2-{[(2,6-dimethylphenyl)sulfonyl]amino}ethyl)-1H-indol-3-yl]propyl}benzoic acid]"
12,130 nM,"O=C(O)CCc1ccc(S(=O)(=O)CCc2c(CCNS(=O)(=O)Cc3ccc(Cl)c(Cl)c3)n(C(c3ccccc3)c3ccccc3)c3ccc(Cl)cc23)cc1 [Example 129, 3-[4-({2-[1-benzhydryl-5-chloro-2-(2-{[(3,4-dichlorobenzyl)sulfonyl]amino}ethyl)-1H-indol-3-yl]ethyl}sulfonyl)phenyl] propanoic acid]"
13,130 nM,Cc1ccccc1S(=O)(=O)NCCc1c(CCCc2ccc(C(=O)O)cc2)c2cc(Cl)ccc2n1C(c1ccccc1)c1ccccc1 [Example 232]

# Source: patent US7605156B2, “Methods for the use of inhibitors of cytosolic phospholipase A2” (Wyeth, priority 2001, dated 2009)
